# Earlier results in US5972966A, “Inhibitors of farnesyl-protein transferase” (Merck & Co., Inc., priority 1997, dated 1999).
# How the values were obtained:
# [1] = system: Ras processing in cells; conditions: by inhibiting the rate-limiting step in the isoprenoid biosynthetic pathway
# [2] = system: farnesyl-protein transferase; conditions: by inhibiting HMG-CoA reductase
SMILES,blocking of Ras processing in cells [1],Indirect inhibition of farnesyl-protein transferase in vivo [2]
CC[C@H](C)C(=O)O[C@H]1C[C@@H](C)C=C2C=C[C@H](C)[C@H](CC[C@@H]3C[C@@H](O)CC(=O)O3)[C@H]21 [lovastatin],blocks Ras processing in cells,Indirect inhibition
CC[C@H](C)C(=O)O[C@H]1CCC=C2C=C[C@H](C)[C@H](CC[C@@H]3C[C@@H](O)CC(=O)O3)[C@H]21 [compactin],–,Indirect inhibition
